What was measured:
[1] = test system: MRSA (NRS384 strain of USA300); assay: MIC determinations for intracellular bacteria (inside mouse peritoneal macrophages); format: cell-based, S. aureus; conditions: for killing of intracellular MRSA sequestered inside macrophages: dose range including serum Cmax; for potency at killing intracellular MRSA as free antibiotics: tested as free antibiotics
USA300 = assay: intravenous infection model in Balb/c mice, pre-treatment; format: in vivo; conditions: antibodies 50 mg/Kg IV 30 minutes prior to infection; vancomycin 110 mg/Kg twice daily IP; day 4
Protocol: Balb/c mice were given a single dose of vehicle control (PBS) or 50 mg/Kg of antibodies by intravenous injection 30 minutes prior to infection with 2×10^7 CFU of USA300. […] Control mice were given twice daily treatments with 110 mg/Kg of vancomycin by intraperitoneal injection (Vanco). All mice were sacrificed on day 4 post-infection, and the total number of surviving bacteria in kidneys (2 kidneys pooled) was determined by plating.
(§1) Intravenous Infection Model: 7 week old female mice were used for all in vivo experiments and infections were carried out by intravenous injection into the tail vein. A/J mice (Jackson Lab) were infected with a dose of 2×10^6 CFU. Balb/c mice (Charles River Laboratories, Hollister, Calif.) were infected with a dose of 2×10^7 CFU. For studies examining the role of competing human IgG (SCID IVIG model), CB17.SCID mice (Charles River Laboratories, Hollister, Calif.) were reconstituted with GammaGard S/D IGIV Immune Globulin (ASD Healthcare, Brooks Ky.) using a dosing regimen optimized to achieve constant serum levels of >10 mg/mL of human IgG. […] The total number of bacteria recovered per mouse (2 kidneys) was determined by plating serial dilutions of the tissue homogenate in PBS 0.05% Tween on Tryptic Soy Agar with 5% defibrinated sheep blood.

[2] = clinically achieveable serum levels; cited from earlier work
MRSA (USA300) = assay: intravenous infection model in CB17.SCID mice reconstituted with human IgG (SCID:huIgG); format: in vivo; conditions: twice-daily 100 mg/Kg, treatment initiated more than 1 day post infection
Protocol: To confirm that the AAC would be effective in the presence of competing human antibodies in vivo, the in vivo infection model was modified to generate mice that express normal levels of human IgG in the serum. […] Four days after infection the bacterial load in the kidneys (FIG. 10C) was assessed.
CB17.SCID mice were reconstituted with human IgG using a dosing regimen optimized to yield constant levels of at least 10 mg/mL of human IgG in serum.
Efficacy of the AAC was compared with that of treatment with vancomycin, the current standard of care treatment for MRSA infections. […]
CB17.SCID mice were reconstituted with human IgG using a dosing regimen optimized to yield constant levels of at least 10 mg/mL of human IgG in serum and infected with 2×10^7 CFU of USA300 by intravenous injection. […] The mice were sacrificed on day 4 post infection, and the total number of surviving bacteria in kidneys (2 kidneys pooled, FIG. 21) and heart (FIG. 22) was determined by plating.
(§2) Intravenous Infection Model: 7 week old female mice were used for all in vivo experiments and infections were carried out by intravenous injection into the tail vein. […] The total number of bacteria recovered per mouse (2 kidneys) was determined by plating serial dilutions of the tissue homogenate in PBS 0.05% Tween on Tryptic Soy Agar with 5% defibrinated sheep blood.

MRSA [3] = conditions: vancomycin 2 and 20 μg/mL; rifampin 0.02 and 0.2 μg/mL; TSB
MRSA [4] = assay: intravenous infection model in CB17.SCID mice, treatment 1 day after infection; format: in vivo; conditions: AAC 50 mg/Kg or antibiotic 0.5 mg/Kg, 1 day post infection; kidneys day 4
Protocol: One day after infection, the mice were treated with 50 mg/Kg of S4497 antibody, 50 mg/Kg of S4497 dimethyl-pipBOR AAC 105 or with 0.5 mg/Kg of dimethyl-pipBOR antibiotic 7, the equivalent dose of antibiotic that is contained in 50 mg/Kg of AAC). Mice were sacrificed 4 days after infection and the total number of surviving bacteria per mouse (2 kidneys pooled) was determined by plating.
as §1

MRSA (USA300 strain) [5] = assay: in vitro macrophage assay (intracellular killing of opsonized MRSA); format: cell-based, S. aureus; conditions: 50 μg/mL; macrophages, osteoblasts (MG63), airway epithelial cells (A549), HUVEC
Protocol: Isolation of Peritoneal Macrophages: Peritoneal macrophages were isolated from the peritoneum of 6-8 week old Balb/c mice (Charles River Laboratories, Hollister, Calif.). To increase the yield of macrophages, mice were pre-treated by intraperitoneal injection with 1 mL of thioglycolate media (Becton Dickinson). The thioglycolate media was prepared at a concentration of 4% in water, sterilized by autoclaving, and aged for 20 days to 6 months prior to use. Peritoneal macrophages were harvested 4 days post treatment with thioglycolate by washing the peritoneal cavity with cold phosphate buffered saline. Macrophages were plated in Dulbecco's Modified Eagle Medium (DMEM) supplemented with 10% Fetal Calf Serum, and 10 mM HEPES, without antibiotics, at a density of 4×10^5 cells/well in 24 well culture dishes. Macrophages were cultured over night to permit adherence to the plate. This assay was also utilized to test intracellular killing in non-phagocytic cell types. […]
Infection of Macrophages with Opsonized MRSA: The USA300 strain of MRSA (NRS384) was obtained from the NARSA repository (Chantilly, Va.). […] Serial dilutions of the lysate were made in phosphate buffered saline solution supplemented with 0.05% Tween-20 (to disrupt aggregates of bacteria) and the total number of surviving intracellular bacteria was determined by plating on Tryptic Soy Agar with 5% defibrinated sheep blood.

MRSA [6] = assay: growth inhibition assay / cathepsin release assay; format: cell-based, S. aureus; conditions: MRSA cultured overnight with up to 10 μg/mL of AAC
Protocol: An AAC comprising antibody rF1, which binds to a family of cell wall associated proteins was conjugated to a rifamycin derivative. S. aureus (Newman strain) was treated with various doses of the rF1-AAC or with equivalent doses of either antibody alone, rifampicin alone or a mixture of antibody and free rifampicin to permit antibody binding to the bacteria (opsonization) and after 1 hour incubation the opsonized bacteria were fed to macrophages (FIG. 7A).
See: page 863 of Dubowchik et al (2002) Bioconj. Chem. 13:855-869, incorporated by reference for the purposes of this assay. Cathepsin B (from bovine spleen, SIGMA C7800) was added at 10 μg/mL and the samples were incubated for 1 hour at 37° C. As a control, AAC were incubated in buffer alone. The reaction was stopped by addition of 10 volumes of bacterial growth media, Tryptic Soy Broth pH 7.4 (TSB). To estimate the total release of active antibiotic, serial dilutions of the reaction mixture were made in quadruplicate in TSB in 96 well plates and the USA300 strain of S. aureus was added to each well at a final density of 2×10^3 CFU/mL. The cultures were incubated over night at […] with shaking and bacterial growth was measured by reading absorbance at 630 nm using a plate reader.

MRSA (USA300 strain) [7] = assay: intravenous infection model in A/J mice; format: in vivo
Protocol: Efficacy of the AAC in an intravenous infection model was also examined. In this model, S. aureus is taken up by circulating neutrophils shortly after infection such that the majority of bacteria found in blood are associated with host cells within minutes after infection (Rogers, et al (1956) J. Exp. Med. 103:713-742). A/J Mice were infected with 2×10^6 CFU of MRSA by intravenous injection, and then treated with 50 mg/Kg of AACs by intravenous injection 30 minutes post infection. In this model, the primary site of infection is the kidney, and mice develop large abscesses that are detectable by two days post infection and fail to be cleared for up to 30 days in the absence of treatment.
Treatments were delivered by IV injection 30 minutes post infection and kidneys were harvested 4 days post infection. The grey dashed line indicates the limit of detection for each organ.
Efficacy of AAC made with pipBOR and dimethyl-pipBOR antibiotic moieties was compared in vivo in the intravenous infection model in A/J mice. […] Seven week old female A/J Mice were infected with 2×10^6 CFU of MRSA (USA300 strain) by intravenous injection into the tail vein. […] Treatments with S4497 antibody, AAC 102 or AAC 105 were administered at the indicated doses 30 minutes after infection. Mice were sacrificed 4 days after infection and the total number of surviving bacteria per mouse (2 kidneys pooled) was determined by plating.
as §2, with “vein. A/J mice (Jackson Lab) were infected with a dose of 2×10^6 CFU. Balb/c mice (Charles River Laboratories, Hollister, Calif.) were infected with a dose of 2×10^7 CFU.” for “vein.”

Molecule: CCCCCCCCCC(=O)N[C@@H](Cc1c[nH]c2ccccc12)C(=O)N[C@H](CC(N)=O)C(=O)N[C@@H](CC(=O)O)C(=O)N[C@@H]1C(=O)NCC(=O)N[C@@H](CCCN)C(=O)N[C@@H](CC(=O)O)C(=O)N[C@H](C)C(=O)N[C@@H](CC(=O)O)C(=O)NCC(=O)N[C@H](CO)C(=O)N[C@@H]([C@H](C)CC(=O)O)C(=O)N[C@@H](CC(=O)c2ccccc2N)C(=O)O[C@@H]1C [Daptomycin, daptomycin]
- killing of intracellular MRSA sequestered inside macrophages [1]: failed to kill

Molecule: CC(=O)NC[C@H]1CN(c2ccc(N3CCOCC3)c(F)c2)C(=O)O1 [Linezolid, linezolid]
- MIC ([1]; Staphylococcus aureus, MRSA inside mouse peritoneal macrophages, antibiotic added 1 day after infection, survival 24 hours later): > 20 µg/mL
- killing of intracellular MRSA sequestered inside macrophages [1]: failed to kill

Molecule: CN[C@H](CC(C)C)C(=O)N[C@H]1C(=O)N[C@@H](CC(N)=O)C(=O)N[C@H]2C(=O)N[C@H]3C(=O)N[C@H](C(=O)N[C@H](C(=O)O)c4cc(O)cc(O)c4-c4cc3ccc4O)[C@H](O)c3ccc(c(Cl)c3)Oc3cc2cc(c3O[C@@H]2O[C@H](CO)[C@@H](O)[C@H](O)[C@H]2O[C@H]2C[C@](C)(N)[C@H](O)[C@H](C)O2)Oc2ccc(cc2Cl)[C@H]1O [Vancomycin, vancomycin]
- killing of intracellular MRSA sequestered inside macrophages [1]: failed to kill
- effect of pre-treatment on bacterial loads in kidneys (USA300): cleared the infection in all of the mice tested
- Serum Cmax [2]: 10 to 40 µg/mL
- reduction of bacterial loads (MRSA (USA300)): about 50 fold
- bacteria remaining viable during the first two hours of antibiotic treatment (MRSA [3]): 90%
- loss in viable bacteria by 5 hours (MRSA [3]): 100 fold

Molecule: CO[C@H]1/C=C/O[C@@]2(C)Oc3c(C)c(O)c4c(=O)c(c5oc6cc(N7CCC(N(C)C)CC7)cc(O)c6nc-5c4c3C2=O)NC(=O)/C(C)=C\C=C\[C@H](C)[C@H](O)[C@@H](C)[C@@H](O)[C@@H](C)[C@H](OC(C)=O)[C@@H]1C [dimethyl-pipBOR, dimethylpiperidyl benzoxazino rifamycin]
- potency at killing intracellular MRSA as free antibiotics [1]: more potent than rifampicin
- efficacy against established infection (MRSA [4]): failed to clear the infection

Molecule: piperidyl benzoxazino rifamycin [pipBOR]
- potency at killing intracellular MRSA as free antibiotics [1]: more potent than rifampicin

Molecule: thio-S4497-HC-A118C-MC-vc-PABC-(pipBOR) [rifa-102]
- intracellular killing of MRSA (MRSA (USA300 strain) [5]): effectively killed
- inhibition of bacterial growth by intact AAC (MRSA [6]): did not result in inhibition of bacterial growth unless the AACs were pre-treated with cathepsin B
- efficacy at the highest dose (MRSA (USA300 strain) [7]; 50 mg/Kg): effective
- efficacy in kidney infection (MRSA (USA300 strain) [7]; 50 mg/Kg IV 30 minutes post infection, kidneys 4 days post infection): cleared the infection in all of the mice tested
- efficacy at lower doses (MRSA (USA300 strain) [7]; doses below 50 mg/Kg): only partially efficacious
